# Laboratory results published in patent publication US20250213735A1, “NEUROPEPTIDE Y1 RECEPTOR (NPY1R) TARGETED THERAPEUTICS AND USES THEREOF” (Radionetics Oncology, Inc., priority 2023, published 2025).
# Biological target: hNPY1R (Homo sapiens (Human), UniProt P25929)
# Assay: NPY1R binding assay (SK-N-MC membrane, [125I]-Peptide YY competition);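 note: bound radioligand separated by filtration over GF/C filter plates and counted, Ki obtained by non-linear regression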
# Details: crude SK-N-MC membranes endogenously expressing NPY1R; [125I]-Peptide YY (human) 0.05 nM; 120 min at room temperature; read-out: hNPY1R binding Ki
# hNPY1R, sequence (P25929 whole entry): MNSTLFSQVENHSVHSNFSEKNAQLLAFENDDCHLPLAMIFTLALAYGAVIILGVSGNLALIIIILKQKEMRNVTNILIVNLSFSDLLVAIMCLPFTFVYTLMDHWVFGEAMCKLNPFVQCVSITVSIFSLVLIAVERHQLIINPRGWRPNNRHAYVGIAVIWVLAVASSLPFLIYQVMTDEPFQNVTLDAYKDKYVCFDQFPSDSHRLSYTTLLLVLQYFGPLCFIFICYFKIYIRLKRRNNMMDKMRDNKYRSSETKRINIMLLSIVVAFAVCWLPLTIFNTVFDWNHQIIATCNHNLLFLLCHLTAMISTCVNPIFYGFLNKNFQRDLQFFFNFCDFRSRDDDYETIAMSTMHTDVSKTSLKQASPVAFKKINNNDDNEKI
row,SMILES,Ki
1,"CCC(=O)NCCNC(=O)/N=C(/N)NCCC[C@@H](NC(=O)[C@H](c1ccc(OCCCNC(=O)CCC(=O)NCCNC(=O)CN2CCN(CC(=O)O)CCN(CC(=O)O)CCN(CC(=O)O)CC2)cc1)N1Cc2ccccc2C1)C(=O)NCc1c(F)cc(O)cc1F [compound 7, 2,2′,2″-(10-(2-((2-(4-((3-(4-((1S,4R,Z)-9-amino-4-((2,6-difluoro-4-hydroxybenzyl)carbamoyl)-1-(isoindolin-2-yl)-2,11,16-trioxo-3,8,10,12,15-pentaazaoctadec-9-en-1-yl)phenoxy)propyl)amino)-4-oxobutanamido)ethyl)amino)-2-oxoethyl)-1,4,7,10-tetraazacyclododecane-1,4,7-triyl)triacetic acid-2,2,2-trifluoroacetic acid (1/1)]",< 0.01 µM
2,"CCC(=O)NCCNC(=O)/N=C(/N)NCCC[C@@H](NC(=O)[C@H](c1ccccc1)N1Cc2cccc(NC(=O)CCCNC(=O)CCCCCNC(=O)CN3CCN(CC(=O)O)CCN(CC(=O)O)CCN(CC(=O)O)CC3)c2C1)C(=O)NCc1c(F)cc(O)cc1F [compound 9, 2,2′,2″-(10-(2-((6-((4-((2-((1S,4R,Z)-9-amino-4-((2,6-difluoro-4-hydroxybenzyl)carbamoyl)-2,11,16-trioxo-1-phenyl-3,8,10,12,15-pentaazaoctadec-9-en-1-yl)isoindolin-4-yl)amino)-4-oxobutyl)amino)-6-oxohexyl)amino)-2-oxoethyl)-1,4,7,10-tetraazacyclododecane-1,4,7-triyl)triacetic acid]",< 0.01 µM
3,"CCC(=O)NCCNC(=O)/N=C(/N)NCCC[C@@H](NC(=O)[C@H](c1cccc(N(C)CCCNC(=O)CCCCCNC(=O)CN2CCN(CC(=O)O)CCN(CC(=O)O)CCN(CC(=O)O)CC2)c1)N1Cc2ccccc2C1)C(=O)NCc1ccc(O)cc1 [compound 11, 2,2′,2″-(10-(2-((6-((3-((3-((1S,4R,Z)-9-amino-4-((4-hydroxybenzyl)carbamoyl)-1-(isoindolin-2-yl)-2,11,16-trioxo-3,8,10,12,15-pentaazaoctadec-9-en-1-yl)phenyl)(methyl)amino)propyl)amino)-6-oxohexyl)amino)-2-oxoethyl)-1,4,7,10-tetraazacyclododecane-1,4,7-triyl)triacetic acid]",< 0.01 µM
4,"CCC(=O)NCCNC(=O)/N=C(/N)NCCC[C@@H](NC(=O)[C@H](c1cccc(OCCCNC(=O)CCCCCNC(=O)CN2CCN(CC(=O)O)CCN(CC(=O)O)CCN(CC(=O)O)CC2)c1)N1Cc2ccccc2C1)C(=O)NCc1ccc(O)cc1 [compound 12, 2,2′,2″-(10-(2-((6-((3-(3-((1S,4R,Z)-9-amino-4-((4-hydroxybenzyl)carbamoyl)-1-(isoindolin-2-yl)-2,11,16-trioxo-3,8,10,12,15-pentaazaoctadec-9-en-1-yl)phenoxy)propyl)amino)-6-oxohexyl)amino)-2-oxoethyl)-1,4,7,10-tetraazacyclododecane-1,4,7-triyl)triacetic acid]",< 0.01 µM
5,"CCNC(=O)/N=C(/N)NCCC[C@@H](NC(=O)[C@H](c1cccc(NCCCNC(=O)[C@H](N)CCCCNC(=O)CN2CCN(CC(=O)O)CCN(CC(=O)O)CCN(CC(=O)O)CC2)c1)N1Cc2ccccc2C1)C(=O)NCc1c(F)cc(O)cc1F [compound 13, 2,2′,2″-(10-(2-(((R)-5-amino-6-((3-((3-((11R,14S,Z)-6-amino-11-((2,6-difluoro-4-hydroxybenzyl)carbamoyl)-14-(isoindolin-2-yl)-4,13-dioxo-3,5,7,12-tetraazatetradec-5-en-14-yl)phenyl)amino)propyl)amino)-6-oxohexyl)amino)-2-oxoethyl)-1,4,7,10-tetraazacyclododecane-1,4,7-triyl)triacetic acid]",< 0.01 µM
6,"CCNC(=O)/N=C(/N)NCCC[C@@H](NC(=O)[C@H](c1cccc(NCCCNC(=O)CCOCCNC(=O)CN2CCN(CC(=O)O)CCN(CC(=O)O)CCN(CC(=O)O)CC2)c1)N1Cc2ccccc2C1)C(=O)NCc1c(F)cc(O)cc1F [compound 14, 2,2′,2″-(10-(2-((2-(3-((3-((3-((11R,14S,Z)-6-amino-11-((2,6-difluoro-4-hydroxybenzyl)carbamoyl)-14-(isoindolin-2-yl)-4,13-dioxo-3,5,7,12-tetraazatetradec-5-en-14-yl)phenyl)amino)propyl)amino)-3-oxopropoxy)ethyl)amino)-2-oxoethyl)-1,4,7,10-tetraazacyclododecane-1,4,7-triyl)triacetic acid]",< 0.01 µM
7,"CCC(=O)NCCNC(=O)/N=C(/N)NCCC[C@@H](NC(=O)[C@H](c1ccc(OCCCNC(=O)CCOCCNC(=O)CN2CCN(CC(=O)O)CCN(CC(=O)O)CCN(CC(=O)O)CC2)cc1)N1Cc2ccccc2C1)C(=O)NCc1ccc(O)cc1 [compound 15, 2,2′,2″-(10-(2-((2-(3-((3-(4-((1S,4R,Z)-9-amino-4-((4-hydroxybenzyl)carbamoyl)-1-(isoindolin-2-yl)-2,11,16-trioxo-3,8,10,12,15-pentaazaoctadec-9-en-1-yl)phenoxy)propyl)amino)-3-oxopropoxy)ethyl)amino)-2-oxoethyl)-1,4,7,10-tetraazacyclododecane-1,4,7-triyl)triacetic acid]",< 0.01 µM
8,"CCC(=O)NCCNC(=O)/N=C(/N)NCCC[C@@H](NC(=O)[C@H](c1ccc(OCCCNc2c(NCCNC(=O)CN3CCN(CC(=O)O)CCN(CC(=O)O)CCN(CC(=O)O)CC3)c(=O)c2=O)cc1)N1Cc2ccccc2C1)C(=O)NCc1ccc(O)cc1 [compound 16, 2,2′,2″-(10-(2-((2-((2-((3-(4-((1S,4R,Z)-9-amino-4-((4-hydroxybenzyl)carbamoyl)-1-(isoindolin-2-yl)-2,11,16-trioxo-3,8,10,12,15-pentaazaoctadec-9-en-1-yl)phenoxy)propyl)amino)-3,4-dioxocyclobut-1-en-1-yl)amino)ethyl)amino)-2-oxoethyl)-1,4,7,10-tetraazacyclododecane-1,4,7-triyl)triacetic acid]",< 0.01 µM
9,"CCC(=O)NCCNC(=O)/N=C(/N)NCCC[C@@H](NC(=O)[C@H](c1ccc(OCCCNC(=O)CCOCCNC(=O)c2ccc(CNC(=O)CN3CCN(CC(=O)O)CCN(CC(=O)O)CCN(CC(=O)O)CC3)cc2)cc1)N1Cc2ccccc2C1)C(=O)NCc1ccc(O)cc1 [compound 17, 2,2′,2″-(10-(2-((4-((2-(3-((3-(4-((1S,4R,Z)-9-amino-4-((4-hydroxybenzyl)carbamoyl)-1-(isoindolin-2-yl)-2,11,16-trioxo-3,8,10,12,15-pentaazaoctadec-9-en-1-yl)phenoxy)propyl)amino)-3-oxopropoxy)ethyl)carbamoyl)benzyl)amino)-2-oxoethyl)-1,4,7,10-tetraazacyclododecane-1,4,7-triyl)triacetic acid]",< 0.01 µM
10,"CCC(=O)NCCNC(=O)/N=C(/N)NCCC[C@@H](NC(=O)[C@H](c1ccc(OCCCNC(=O)[C@H]2CC[C@H](CNC(=O)CN3CCN(CC(=O)O)CCN(CC(=O)O)CCN(CC(=O)O)CC3)CC2)cc1)N1Cc2ccccc2C1)C(=O)NCc1ccc(O)cc1 [compound 18, 2,2′,2″-(10-(2-((((1S,4r)-4-((3-(4-((1S,4R,Z)-9-amino-4-((4-hydroxybenzyl)carbamoyl)-1-(isoindolin-2-yl)-2,11,16-trioxo-3,8,10,12,15-pentaazaoctadec-9-en-1-yl)phenoxy)propyl)carbamoyl)cyclohexyl)methyl)amino)-2-oxoethyl)-1,4,7,10-tetraazacyclododecane-1,4,7-triyl)triacetic acid]",< 0.01 µM
